In one data set the test system is rice blast. In words: microbe, parasite or virus in culture. Type of data set: cell-based. The conditions noted are these: Pyricularia oryzae; for inhibition at 8.3 ppm: read-out: inhibition rate against rice blast, 8.3 ppm, in vitro.
For a further data set, the system named is armyworm. In words: bioactivity test against armyworm, airbrush spray. Format: in vivo. The following applies: 72 h, read-out: Insecticidal activity against armyworm (%); for pest or weed control at 10 µg/mL: 10 mg/L; for pest or weed control at 100 µg/mL: 100 mg/L; for pest or weed control at 600 µg/mL: 600 mg/L.
Data set [1] has as its system Green peach aphids (Myzus Persicae Sulzer). The experiment in a line: bioactivity test against green peach aphid, airbrush foliar spray. Type of data set: in vivo. The conditions noted are these: Myzus persicae, foliar, 48 h, contrastive test, read-out: Insecticidal activity against peach aphid (%); for pest or weed control at 10 µg/mL: 10 mg/L; for pest or weed control at 100 µg/mL: 100 mg/L; for pest or weed control at 600 µg/mL: 600 mg/L. The method in brief: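 Aphids (15-30 per cabbage leaf disc) on moist filter paper were airbrush-sprayed at 10 psi, 0.5 mL, with compound from acetone:methanol (1:1) diluted in water with 0.1% tween 80. Held at 25±1 C, 60±5% RH; survivors counted after 48 hrs to give death rates.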

The conditions of data set [2]: concentration of 50 ppm; cited from earlier work.
For data set [3] the following is noted: concentration of 400 and 100 ppm; cited from earlier work.
The subject of another data set is corn rust. In words: protectant activity in vivo against corn rust. The conditions noted are these: Zea mays, 168 h; for pest or weed control at 100 µg/mL: read-out: control effect against corn rust (%), 100 mg/L; for pest or weed control at 400 µg/mL: read-out: control effect against corn rust (%), 400 mg/L.
The test system of another data set is wheat powdery mildew. In words: protectant activity in vivo against wheat powdery mildew. The conditions noted are these: Triticum aestivum, 168 h.
The next data set has as its system cucumber gray mold. The experiment in a line: fungicidal activity in vitro (inhibition rate) against cucumber gray mold. Format: cell-based. The following applies: 25 ppm, in vitro; read-out: inhibition rate against cucumber gray mold.
A further data set relates to cucumber downy mildew. In words: protectant activity in vivo against cucumber downy mildew. The conditions noted are these: Cucumis sativus, 168 h.

Molecules are shown by their SMILES.

The term inhibition denotes the drop in the measured response relative to a control, in per cent. `Clc1ccc(Oc2ccc(CCNc3ncnc4ccccc34)cn2)cc1` [CK18, reference compound]: the inhibition at 8.3 ppm in the data set on rice blast is 0%. Moreover, in the data set with armyworm, the pest or weed control at 10 µg/mL was found to be 14%, the pest or weed control at 100 µg/mL was 43% and the pest or weed control at 600 µg/mL worked out at 100%. In data set [1] (2.5 mg/L), the pest or weed control at 2.5 µg/mL was 0%. The pest or weed control at 5 µg/mL in data set [1] (5 mg/L) was 7%. For the same molecule, in data set [1], the pest or weed control at 10 µg/mL came out at 51%, the pest or weed control at 100 µg/mL amounted to 71% and the pest or weed control at 600 µg/mL was determined as 100%. Also, the insectcidal activity result in data set [2] was “good insectcidal activity”. Besides, in data set [3], the fungicidal activity result was “good fungicidal activity”. Also, the pest or weed control at 25 µg/mL with corn rust (read-out: control effect against corn rust (%), 25 mg/L, protectant activity) was 0%. Moreover, in the data set on corn rust (protectant activity), the pest or weed control at 100 µg/mL is 30% and the pest or weed control at 400 µg/mL was 80%.

With `FC(F)(F)c1ccc(Oc2ccc(CCNc3ncnc4ccccc34)cn2)cc1` [CK19, reference compound], the inhibition at 8.3 ppm with rice blast stood at 0%. The pest or weed control at 10 µg/mL in the data set on armyworm came to 7%; in data set [1], 33%. Further, the pest or weed control at 100 µg/mL was 25% with armyworm; 86% in data set [1]; 0% with corn rust (protectant activity); 0% in the data set with wheat powdery mildew (read-out: control effect against wheat powdery mildew (%), 100 mg/L, protectant activity). The results for the pest or weed control at 600 µg/mL (with armyworm; in [1]) were 86% and 100%, respectively. Moreover, the insectcidal activity result in data set [2] is listed as “good insectcidal activity”. The fungicidal activity result in data set [3] is listed as “good fungicidal activity”. Also, the pest or weed control at 400 µg/mL in the data set with corn rust (protectant activity) stood at 70%; with wheat powdery mildew (read-out: control effect against wheat powdery mildew (%), 400 mg/L, protectant activity) it was 50%.

The melting point is the temperature, or range, at which the solid turns liquid. Molecule `COc1cc(OC)nc(Oc2ccc(CCNc3ncnc(C)c3Cl)cc2)n1` [Compound I-4757] came in with a melting point of 119 to 120 °C. Moreover, in the data set with rice blast (read-out: inhibition rate against rice blast, 25 ppm, in vitro), the inhibition at 25 ppm lay within 80 to 99%. Besides, the inhibition at 25 ppm in the data set with cucumber gray mold stood at 100%. Moreover, the pest or weed control at 25 ppm in the data set on corn rust (read-out: protectant activity against corn rust in vivo, 25 ppm) was 80 to 99%. The pest or weed control at 100 ppm with corn rust (read-out: protectant activity against corn rust in vivo, 100 ppm) was found to be 100%. In addition, the pest or weed control at 400 ppm in the data set with corn rust (read-out: protectant activity against corn rust in vivo, 400 ppm) is 100%. Also, the pest or weed control at 400 ppm in the data set with wheat powdery mildew (read-out: protectant activity against wheat powdery mildew in vivo, 400 ppm) was 100%. In the data set with cucumber downy mildew (read-out: protectant activity against cucumber downy mildew in vivo, 100 ppm), the pest or weed control at 100 ppm turned out to be 100%. In the data set on cucumber downy mildew (read-out: protectant activity against cucumber downy mildew in vivo, 400 ppm), the pest or weed control at 400 ppm came to 100%.
